# Results as given in ChEMBL document CHEMBL6103557, “Novel Pyrrolidinone Urea Compounds as FPR2 Agonists for Treating Atherosclerosis and Heart Failure” (ACS Med Chem Lett, 2024).
# Target: T1, N-formyl peptide receptor 2 (Homo sapiens, UniProt P25090)
# T1 sequence (P25090 whole entry): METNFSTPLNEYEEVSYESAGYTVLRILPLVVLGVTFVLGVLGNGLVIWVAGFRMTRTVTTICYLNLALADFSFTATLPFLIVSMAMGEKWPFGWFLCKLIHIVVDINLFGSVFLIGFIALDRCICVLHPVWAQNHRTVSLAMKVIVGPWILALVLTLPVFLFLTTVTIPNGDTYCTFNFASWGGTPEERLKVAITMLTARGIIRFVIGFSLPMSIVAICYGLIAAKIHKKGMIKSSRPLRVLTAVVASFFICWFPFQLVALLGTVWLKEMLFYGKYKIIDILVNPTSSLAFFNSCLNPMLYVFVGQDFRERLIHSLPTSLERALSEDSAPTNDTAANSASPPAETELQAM
# Assay: Agonist activity at human FPR2 expressed in forskolin/IBMX-treated CHO cells incubated for 30 mins by HTRF HiRange cAMP assay
# Type: functional, cell-based
row,SMILES,EC50 [nM]
1,CC(C)(O)C1CCCN1c1cc(F)c(N2CCC(NC(=O)Nc3ccc(Cl)cc3F)C2=O)c(F)c1 (stereo unspecified),0.51
2,O=C(Nc1ccc(Cl)cc1F)N[C@@H]1CCN(c2ccc(N3CCC(CO)C3)c(F)c2F)C1=O (stereo partly specified),0.74
3,O=C(Nc1ccc(Cl)cc1F)N[C@@H]1C[C@@H](CO)N(c2ccc(N3CCC(C(F)F)C3)c(F)c2F)C1=O (stereo partly specified),0.7
4,CN(C)[C@H]1CN(c2ccc(N3CC[C@@H](NC(=O)Nc4ccc(Cl)cc4F)C3=O)c(F)c2F)C[C@H]1F,0.71
5,CN(C)[C@@H]1CCN(c2ccc(N3CC[C@@H](NC(=O)Nc4ccc(C(F)(F)F)cc4F)C3=O)c(F)c2F)C1,0.1
6,O=C(Nc1ccc(Cl)cc1F)N[C@@H]1C[C@@H](CO)N(c2ccc(N3CCC(C(F)(F)F)C3)c(F)c2F)C1=O (stereo partly specified),0.14
